Active and inactive are the calls of the source. The calls are words filed in the database; no cut-off is given here.
Assays:
[1] = target: T1, Lysine-specific histone demethylase 1A (Homo sapiens, UniProt O60341); test: Potency index, ratio of IC50 for NCL1 to IC50 for test compound against full length human fusion His6 tagged LSD1 expressed in Escherichia coli BL21(DE3) cells
[2] = target: T1, Lysine-specific histone demethylase 1A; test: Inhibition of full length human fusion His6 tagged LSD1 expressed in Escherichia coli BL21(DE3) cells using H3K4me2 peptide substrate preincubated for 5 mins by peroxidase-coupled method
HeLa = test: Antiproliferative activity against human HeLa cells assessed as growth inhibition after 48 h by MTT assay; assay type: functional
SH-SY5Y = test: Antiproliferative activity against human SH-SY5Y cells assessed as growth inhibition after 48 h by MTT assay; assay type: functional
[3] = target: T1, Lysine-specific histone demethylase 1A; test: Inhibition of LSD1 in human SH-SY5Y cells assessed as induction of H3K4me2 accumulation at 10 uM after 24 hrs by Western blot method; assay type: cell-based
[4] = target: T1, Lysine-specific histone demethylase 1A; test: Inhibition of LSD1 in human SH-SY5Y cells assessed as induction of H3K4me2 accumulation at 30 uM after 24 hrs by Western blot method; assay type: cell-based
[5] = target: T2, Amine oxidase [flavin-containing] A (Homo sapiens, UniProt P21397); test: Inhibition of MAOA (unknown origin)
T2 sequence (P21397 whole entry): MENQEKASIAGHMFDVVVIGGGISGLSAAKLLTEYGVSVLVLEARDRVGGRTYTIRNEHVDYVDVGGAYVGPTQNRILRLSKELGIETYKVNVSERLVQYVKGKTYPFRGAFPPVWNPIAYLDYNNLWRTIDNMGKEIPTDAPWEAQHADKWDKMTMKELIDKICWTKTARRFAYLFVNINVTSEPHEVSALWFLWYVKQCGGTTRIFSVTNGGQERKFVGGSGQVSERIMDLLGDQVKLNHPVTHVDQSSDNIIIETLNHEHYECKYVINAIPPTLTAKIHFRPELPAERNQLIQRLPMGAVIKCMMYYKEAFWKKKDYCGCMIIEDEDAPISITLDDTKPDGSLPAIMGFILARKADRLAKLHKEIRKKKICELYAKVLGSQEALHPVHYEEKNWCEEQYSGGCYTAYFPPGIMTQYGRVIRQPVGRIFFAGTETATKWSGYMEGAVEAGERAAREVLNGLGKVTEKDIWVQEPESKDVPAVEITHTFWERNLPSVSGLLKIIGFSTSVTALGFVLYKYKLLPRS

[6] = target: T1, Lysine-specific histone demethylase 1A; test: Time-dependent inhibition of full length human fusion His6 tagged LSD1 expressed in Escherichia coli BL21(DE3) cells using H3K4me2 peptide substrate preincubated for 5 mins by peroxidase-coupled method
[7] = target: T1, Lysine-specific histone demethylase 1A; test: Time-dependent inhibition of full length human fusion His6 tagged LSD1 expressed in Escherichia coli BL21(DE3) cells assessed as enzyme inactivation using H3K4me2 peptide substrate preincubated for 5 mins by peroxidase-coupled method
[8] = target: T1, Lysine-specific histone demethylase 1A; test: Inhibition of full length human fusion His6 tagged LSD1 expressed in Escherichia coli BL21(DE3) cells assessed as FAD-NCL1 adduct formation at 100 uM incubated for 22 hrs by MALDI-TOF mass spectrometry
[9] = target: T3, Amine oxidase [flavin-containing] B (Homo sapiens, UniProt P27338); test: Inhibition of MAOB (unknown origin)
T3 sequence (P27338 whole entry): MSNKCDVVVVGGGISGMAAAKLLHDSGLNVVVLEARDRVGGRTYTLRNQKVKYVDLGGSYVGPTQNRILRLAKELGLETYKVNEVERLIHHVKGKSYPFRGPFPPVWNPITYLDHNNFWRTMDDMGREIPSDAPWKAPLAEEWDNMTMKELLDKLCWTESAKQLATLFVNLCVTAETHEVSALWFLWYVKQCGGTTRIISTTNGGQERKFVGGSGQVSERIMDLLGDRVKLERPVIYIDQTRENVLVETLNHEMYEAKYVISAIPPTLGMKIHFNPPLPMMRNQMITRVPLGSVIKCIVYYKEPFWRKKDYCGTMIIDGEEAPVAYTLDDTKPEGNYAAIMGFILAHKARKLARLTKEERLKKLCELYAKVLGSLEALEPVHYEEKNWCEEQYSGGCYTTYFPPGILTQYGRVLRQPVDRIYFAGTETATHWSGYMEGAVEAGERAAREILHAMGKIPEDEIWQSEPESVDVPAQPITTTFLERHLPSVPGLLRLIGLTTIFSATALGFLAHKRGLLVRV

In the case of `CN1CCN(C(=O)CNC2CC2c2cccc(OCC[C@H](NC(=O)c3ccccc3)C(=O)NCc3ccccc3)c2)CC1` (some centres not stated), the Ratio IC50 [1] is reported as 6, the IC50 [2] is reported as 0.38 µM and the GI50 (HeLa) is reported as 109 µM. For the same molecule, the GI50 (SH-SY5Y) was 42 µM, the inhibition [3] was “Active” and the inhibition [4] was “Active”. For the same molecule, the IC50 [5] was > 100 µM, the Ki [6] was 2.4 µM and the inhibition ([6]; TDE = time-dependent effect) was “tde”. The Kinact [7] was 0.0035 s⁻¹, the inhibition [8] was “Active” and the IC50 [9] was > 100 µM.
With `CN1CCN(C(=O)CNC2CC2c2cccc(O)c2)CC1` (configuration not stated) the IC50 [2] was 2.4 µM, the GI50 (HeLa) was > 240 µM and the GI50 (SH-SY5Y) was > 240 µM.
For `NC1CC1c1cccc(OCC[C@H](NC(=O)c2ccccc2)C(=O)NCc2ccccc2)c1` (some centres not stated), the GI50 (HeLa) was 13 µM and the GI50 (SH-SY5Y) was 27 µM.

From ChEMBL document CHEMBL3734748, “Design, synthesis, and biological activity of N-alkylated analogue of NCL1, a selective inhibitor of lysine-specific demethylase 1” (Medchemcomm, 2015)
